Laboratory results from PubChem BioAssay (NCI).
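Each compound was tested at five concentrations against cells in 96-well plates for 48 hours. Here, GI50 denotes the concentration required for 50% inhibition of growth. TGI is the concentration that stops growth completely.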

Legend:
Assay in all cases: NCI tumour cell line growth inhibition, 48 h
[1] = test system: NCI-H460 lung
[2] = test system: OVCAR-5 ovarian
[3] = test system: UO-31 renal
[4] = test system: CCRF-CEM leukemia
[5] = test system: RXF 393 renal
[6] = test system: SNB-19 CNS
[7] = test system: K-562 leukemia
[8] = test system: UACC-62 melanoma

Compound	GI50 [1] [µM]	TGI [1] [µM]	GI50 [2] [µM]	TGI [2] [µM]	GI50 [3] [µM]	TGI [3] [µM]	GI50 [4] [µM]	TGI [4] [µM]	GI50 [5] [µM]	TGI [5] [µM]	GI50 [6] [µM]	TGI [6] [µM]	GI50 [7] [µM]	TGI [7] [µM]	GI50 [8] [µM]	TGI [8] [µM]
C#Cc1cccc(NC(=O)Nc2ccc(NC(=O)CCl)cc2)c1	22	> 82.5	14.3	28.2	12.2	23.3	9.55	26.9	9.37	23.2	15.7	40.8	15.5	53.9	17.4	61
COc1ccc(Cl)cc1N1C(=O)C(Cl)=C(Nc2cccc(O)c2)C1=O	17.9	48.6	28.7	94.4	13.2	26.6	14.5	43.8	7.36	29	30.2	> 100	18.5	46.2	12.3	27.9
N#Cc1c(NC(=O)c2cccs2)[n+]([O-])c2ccccc2[n+]1[O-]	> 100	> 100	> 100	> 100	> 100	> 100	> 100	> 100	> 100	> 100	> 100	> 100	> 100	> 100	> 100	> 100
CC1C(=O)N=C2C(=CN(Cc3ccccc3)c3ccccc32)C(=O)N1C (stereo not given)		> 100		> 100		> 100		> 100		> 100		> 100		> 100		> 100
O=C(CNC(=O)c1cccc2ccccc12)Nc1ccccc1Oc1cccc(O)c1	5.82	> 25	> 25	> 25	16.5	> 25	4.17	> 25	4.12	15.4	8.73	> 25	1.05	> 25	1.62	> 25
Cc1c(C(=O)/C=C/c2ccc(O)cc2)nnn1-c1ccnc2c(C(F)(F)F)cccc12	15	> 100	> 100	> 100	41.9	> 100	4.54	> 100	16.6	67.3	24.9	> 100	2.64	> 100	18.7	> 100
CC1(C)CCSC(/C=C/c2ccccc2)=N1		24.6		36.4				> 100		47.7		46		> 100		
COC(=O)Nc1ccc2ccc3c(NC(=O)OC)ccc4ccc1c2c43 (tested in a mixture with another compound)	4.79	> 50	13.9	> 50	5.21	18.3	6.04	> 50	7.3	20.5	13.1	> 50	3.29	> 50	5.83	> 50
COc1nccc(-c2c(-c3ccc(F)cc3)ncn2C2CCC(O)CC2)n1 (stereo not given)	29.9	> 100	43.8	> 100	10.1	> 100	> 84.5	> 100	> 79.2	> 100	> 100	> 100	44.1	> 100	> 86.9	> 100
S=C(Nc1ccccc1)c1ccccn1	63.2	> 100	> 100	> 100	25.5	> 100	3.97	40.4	40.3	> 100	> 100	> 100	48.4	> 100	70.7	> 100
CCCCCCN1C(=O)/C(=c2\sc3n(c2=O)C2C(NN=3)N(CC)C(=O)N2CC)c2ccccc21 (stereo not given)			2.03	> 50	1.43	> 50	2.5	> 50	1.2	3.98	3.03	> 50	1.89	> 50	2.89	> 50
COc1cc2c(/C=C3/C(=O)Nc4ccccc43)c(Cl)n(Cc3ccccc3)c2cc1C	> 100	> 100	> 100	> 100	83.4	> 100	29.1	> 100	> 100	> 100	> 100	> 100			> 100	> 100
